US20240383904A1, “HETEROCYCLIC COMPOUNDS” (Hoffmann-La Roche Inc., priority 2021, published 2024)

target: T1, MAGL (Homo sapiens, UniProt Q99685); assay: 2-AG assay: MAGL inhibitory activity by hydrolysis of 2-arachidonoylglycerol to arachidonic acid, followed by mass spectrometry; format: biochemical; details: 15 min preincubation, 30 min reaction at RT, 8 μM 2-arachidonoylglycerol
T1 sequence (Q99685 1-303): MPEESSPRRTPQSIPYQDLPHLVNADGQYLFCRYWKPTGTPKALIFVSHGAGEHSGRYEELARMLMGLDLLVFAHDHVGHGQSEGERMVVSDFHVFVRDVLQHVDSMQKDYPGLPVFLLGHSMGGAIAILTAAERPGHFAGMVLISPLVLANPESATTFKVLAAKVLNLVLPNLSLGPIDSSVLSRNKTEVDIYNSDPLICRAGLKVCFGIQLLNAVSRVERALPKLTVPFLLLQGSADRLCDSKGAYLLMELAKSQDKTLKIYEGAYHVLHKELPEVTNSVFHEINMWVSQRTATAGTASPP

Structure (SMILES)	IC50 [nM]
O=C1CCC2(CN(C(=O)N3CC4(CCN(Cc5ccc(C(F)(F)F)nn5)C4)C3)C2)N1 [Example 317, 2-[7-[[6-(trifluoromethyl)pyrida-zin-3-yl]methyl]-2,7-diazaspiro[3.4]octane-2-carbonyl]-2,5-diazaspiro[3.4]octan-6-one]	1040
Cn1ncc(C(F)(F)F)c1CC1CC2(C1)CN(C(=O)N1CC3(CCC(=O)N3)C1)C2 [Example 167, 2-[6-[[2-methyl-4-(trifluoromethyl)pyrazol-3-yl]methyl]-2-azaspiro[3.3]heptane-2-carbonyl]-2,5-diazaspiro[3.4]octan-6-one]	1.72
O=C1NC2(CO1)CN(C(=O)N1CC3(CC(NS(=O)(=O)c4cccc(C(F)(F)F)c4)C3)C1)C2 [Example 50, N-[2-(6-keto-7-oxa-2,5-diazaspiro[3.4]octane-2-carbonyl)-2-azaspiro[3.3]heptan-6-yl]-3-(trifluoromethyl)benzene-sulfonamide]	0.78
CS(=O)(=O)c1ccc(CC2CC3(C2)CN(C(=O)N2CC4(COC(=O)N4)C2)C3)cc1 [Example 13, 2-[6-(4-mesylbenzyl)-2-azaspiro[3.3]heptane-2-carbonyl]-7-oxa-2,5-diazaspiro[3.4]octan-6-one]	0.93
O=C1NC2(CO1)CN(C(=O)N1CC3(CC[C@H](Oc4cnc(C(F)(F)F)cn4)C3)C1)C2 (single isomer, unassigned) [Example 100]	3.42
Cn1cc(OC2CC3(C2)CN(C(=O)N2CC4(CCC(=O)N4)C2)C3)cn1 [Example 344, 2-[6-(1-methylpyrazol-4-yl)oxy-2-azaspiro[3.3]heptane-2-carbonyl]-2,5-diazaspiro[3.4]octan-6-one]	2450
O=C1NC2(CO1)CN(C(=O)N1CC3(CC[C@@H](Cc4cnc(C(F)(F)F)cn4)C3)C1)C2 [Example 113, 2-[(6R)-6-[[5-(trifluoromethyl)pyrazin-2-yl]methyl]-2-azaspiro[3.4]octane-2-carbonyl]-7-oxa-2,5-diazaspiro[3.4]octan-6-one]	0.62
O=C1CCC2(CN(C(=O)N3CC4(CC(Cc5cnn(CC(F)(F)F)c5)C4)C3)C2)N1 [Example 248, 2-[6-[[1-(2,2,2-trifluoroethyl)pyrazol-4-yl]methyl]-2-azaspiro[3.3]heptane-2-carbonyl]-2,5-diazaspiro[3.4]octan-6-one]	32.8
O=C1CCC2(CN(C(=O)N3CC4(C3)CN(S(=O)(=O)c3cccc(OC(F)(F)F)c3)C4)C2)N1 [Example 198, 2-[2-[3-(trifluoromethoxy)phenyl]sulfonyl-2,6-diazaspiro[3.3]heptane-6-carbonyl]-2,5-diazaspiro[3.4]octan-6-one]	232
O=C1COCC2(CN(C(=O)N3CC4(CCN(Cc5ccc(S(=O)(=O)C(F)(F)F)cc5)C4)C3)C2)N1 [Example 233, 2-[7-[[4-(trifluoromethylsulfonyl)phenyl]methyl]-2,7-diazaspiro[3.4]octane-2-carbonyl]-8-oxa-2,5-diazaspiro[3.5]nonan-6-one]	265
CS(=O)(=O)c1cc(C(F)(F)F)ccc1CC1CC2(C1)CN(C(=O)N1CC3(COCC(=O)N3)C1)C2 [Example 184, 2-[6-[[2-methylsulfonyl-4-(trifluoromethyl)phenyl]methyl]-2-azaspiro[3.3]heptane-2-carbonyl]-8-oxa-2,5-diazaspiro[3.5]nonan-6-one]	210
CS(=O)(=O)c1ccc(C2CC3(C2)CN(C(=O)N2CC4(COC(=O)N4)C2)C3)cc1 [Example 124, 2-[6-(4-mesylphenyl)-2-azaspiro[3.3]heptane-2-carbonyl]-7-oxa-2,5-diazaspiro[3.4]octan-6-one]	4.54

The next lines start with the values.

IC50 [nM]	Structure (SMILES)
20.9	Cc1nn(C)c(Cl)c1CN1CC2(C1)CN(C(=O)N1CC3(COC(=O)N3)C1)C2 [Example 305, 2-[6-[(5-chloro-1,3-dimethyl-pyrazol-4-yl)methyl]-2,6-diazaspiro[3.3]heptane-2-carbonyl]-7-oxa-2,5-diazaspiro[3.4]octan-6-one]
0.18	O=C1NC2(CO1)CN(C(=O)N1CC3(CCC(Cc4ccc(C(F)(F)F)nc4)CC3)C1)C2 [Example 101, 2-[7-[[6-(trifluoromethyl)-3-pyridyl]methyl]-2-azaspiro[3.5]nonane-2-carbonyl]-7-oxa-2,5-diazaspiro[3.4]octan-6-one]
0.91	N=S(=O)(c1cccc(CC2CC3(C2)CN(C(=O)N2CC4(CCC(=O)N4)C2)C3)c1)C(F)(F)F (centres unmarked) [Example 1]
0.55	N#Cc1cc(C(F)(F)F)ncc1C[C@@H]1CCC2(C1)CN(C(=O)N1CC3(COC(=O)N3)C1)C2 [Example 213, 5-[[(6R)-2-(6-oxo-7-oxa-2,5-diazaspiro[3.4]octane-2-carbonyl)-2-azaspiro[3.4]octan-6-yl]methyl]-2-(trifluoromethyl)pyridine-4-carbonitrile]
237	O=C1CCC2(CN(C(=O)N3CC4(CCN(Cc5cnc(C(F)(F)F)cn5)C4)C3)C2)N1 [Example 155, 2-[7-[[5-(trifluoromethyl)pyrazin-2-yl]methyl]-2,7-diazaspiro[3.4]octane-2-carbonyl]-2,5-diazaspiro[3.4]octan-6-one]
36.6	O=C1CCC2(CN(C(=O)N3CC4(CC(Cn5cnc(C(F)(F)F)c5)C4)C3)C2)N1 [Example 59, 2-[6-[[4-(trifluoromethyl)imidazol-1-yl]methyl]-2-azaspiro[3.3]heptane-2-carbonyl]-2,5-diazaspiro[3.4]octan-6-one]
4.95	N=[S@](=O)(c1ccc(CC2CC3(C2)CN(C(=O)N2CC4(COCC(=O)N4)C2)C3)cc1)C(F)(F)F [Example 285, 2-[6-[[4-(trifluoromethylsulfoni-midoyl)phenyl]methyl]-2-azaspiro[3.3]heptane-2-carbonyl]-8-oxa-2,5-diazaspiro[3.5]nonan-6-one]
1.29	N=[S@](=O)(c1cccc(CC2CC3(C2)CN(C(=O)N2CC4(CCC(=O)N4)C2)C3)c1)C(F)(F)F [Example 292, 2-[6-[[3-(trifluoromethylsulfoni-midoyl)phenyl]methyl]-2-azaspiro[3.3]heptane-2-carbonyl]-2,5-diazaspiro[3.4]octan-6-one]
